The test system of one assay is KM12. Nature of the assay: Cytotoxicity against human KM12 cells assessed as cell growth at 50 uM after 48 hrs by SRB assay. It counts as functional. Conditions: KM12, 48 h, read-out: Activity.
For the next assay, the system named is NCI-H460. Nature of the assay: Cytotoxicity against human NCI-H460 cells assessed as cell growth at 0.5 uM after 48 hrs by SRB assay. In kind it is functional. Conditions: NCI-H460, 48 h, read-out: Activity. (In general: In SRB staining, fixed cells bind dye roughly in proportion to their protein.)
Assay [1] is described as follows: Cytotoxicity against human TK10 cells assessed as cell growth at 50 nM after 48 hrs by SRB assay. Conditions: TK-10, 48 h, read-out: Activity. It counts as functional.
A short description of assay [2]: Cytotoxicity against human RPMI8226 cells assessed as cell growth at 50 nM after 48 hrs by SRB assay. It counts as functional. The conditions noted are these: RPMI-8226, 48 h, read-out: Activity.
The test system of assay [3] is EKVX. Kind of assay: Cytotoxicity against human EKVX cells assessed as cell growth at 50 nM after 48 hrs by SRB assay. In kind it is functional. Conditions: read-out: Activity.
Assay [4] in a line: Cytotoxicity against human Hs 578T cells assessed as cell growth at 5 uM after 48 hrs by SRB assay. It counts as functional. Conditions: read-out: Activity.
The subject of the next assay is MDA-MB-468. Nature of the assay: Cytotoxicity against human MDA-MB-468 cells assessed as cell growth at 0.5 uM after 48 hrs by SRB assay. It counts as functional. The conditions noted are these: MDA-MB-468, 48 h, read-out: Activity.
A short description of assay [5]: Cytotoxicity against human SNB75 cells assessed as cell growth at 50 uM after 48 hrs by SRB assay. In kind it is functional. The conditions noted are these: SNB-75, 48 h, read-out: Activity.
A short description of assay [6]: Cytotoxicity against human UACC257 cells assessed as cell growth at 5 nM after 48 hrs by SRB assay. It counts as functional. The conditions noted are these: UACC-257, 48 h, read-out: Activity.
A short description of assay [7]: Cytotoxicity against human HL-60(TB) cells assessed as cell growth at 5 uM after 48 hrs by SRB assay. In kind it is functional. Conditions: HL-60, 48 h, read-out: Activity.
Assay [8] is described as follows: Cytotoxicity against human OVCAR5 cells assessed as cell growth at 50 uM after 48 hrs by SRB assay. It counts as functional. Conditions: OVCAR-5, 48 h, read-out: Activity.
The nature of assay [9]: Cytotoxicity against human HOP62 cells assessed as cell growth at 50 uM after 48 hrs by SRB assay. In kind it is functional. Conditions: HOP-62, 48 h, read-out: Activity.
A short description of assay [10]: Cytotoxicity against human UO31 cells assessed as cell growth at 5 uM after 48 hrs by SRB assay. In kind it is functional. The conditions noted are these: UO-31, 48 h, read-out: Activity.
Assay [11] has as its system K562. Kind of assay: Cytotoxicity against human K562 cells assessed as cell growth at 5 nM after 48 hrs by SRB assay. Conditions: K562, 48 h, read-out: Activity. In kind it is functional.
Assay [12] in a line: Cytotoxicity against human OVCAR3 cells assessed as cell growth at 0.5 uM after 48 hrs by SRB assay. In kind it is functional. The conditions noted are these: OVCAR-3, 48 h, read-out: Activity.
Assay [13] has as its system U-251. Kind of assay: Cytotoxicity against human U251 cells assessed as cell growth at 50 uM after 48 hrs by SRB assay. It counts as functional. The conditions noted are these: U-251, 48 h, read-out: Activity.
Assay [14] can be described thus: Cytotoxicity against human HCC2998 cells assessed as cell growth at 50 nM after 48 hrs by SRB assay. In kind it is functional. The conditions noted are these: HCC 2998, 48 h, read-out: Activity.
Assay [15] is described as follows: Cytotoxicity against human Caki1 cells assessed as cell growth at 5 uM after 48 hrs by SRB assay. Conditions: CAKI-1, 48 h, read-out: Activity. In kind it is functional.
A short description of assay [16]: Cytotoxicity against human RXF393 cells assessed as cell growth at 5 nM after 48 hrs by SRB assay. Conditions: RXF 393, 48 h, read-out: Activity. In kind it is functional.
A short description of assay [17]: Cytotoxicity against human RPMI8226 cells assessed as cell growth at 50 uM after 48 hrs by SRB assay. It counts as functional. The conditions noted are these: RPMI-8226, 48 h, read-out: Activity.
In another assay the test system is NCI-H226. Nature of the assay: Cytotoxicity against human NCI-H226 cells assessed as cell growth at 50 uM after 48 hrs by SRB assay. In kind it is functional. The conditions noted are these: NCI-H226, 48 h, read-out: Activity.
Assay [18] can be described thus: Cytotoxicity against human RXF393 cells assessed as cell growth at 0.5 uM after 48 hrs by SRB assay. In kind it is functional. The conditions noted are these: RXF 393, 48 h, read-out: Activity.
A short description of assay [19]: Cytotoxicity against human OVCAR8 cells assessed as cell growth at 50 uM after 48 hrs by SRB assay. The conditions noted are these: OVCAR-8, 48 h, read-out: Activity. In kind it is functional.
Assay [20] in a line: Cytotoxicity against human HOP62 cells assessed as cell growth at 0.5 uM after 48 hrs by SRB assay. In kind it is functional. Conditions: HOP-62, 48 h, read-out: Activity.
Assay [21] in a line: Cytotoxicity against human PC3 cells assessed as cell growth at 5 nM after 48 hrs by SRB assay. It counts as functional. Conditions: PC-3, 48 h, read-out: Activity.
Assay [22] in a line: Cytotoxicity against human HCT15 cells assessed as cell growth at 10^-4 M after 48 hrs by SRB assay. In kind it is functional. Conditions: HCT-15, 48 h, read-out: Activity.
The nature of assay [23]: Cytotoxicity against human TK10 cells assessed as cell growth at 10^-5 M after 48 hrs by SRB assay. In kind it is functional. The conditions noted are these: TK-10, 48 h, read-out: Activity.
Assay [24] in a line: Cytotoxicity against human HCT116 cells assessed as cell growth at 10^-8 M after 48 hrs by SRB assay. In kind it is functional. The conditions noted are these: HCT-116, 48 h, read-out: Activity.
The subject of assay [25] is K562. Kind of assay: Cytotoxicity against human K562 cells assessed as cell growth at 10^-7 M after 48 hrs by SRB assay. In kind it is functional. The conditions noted are these: K562, 48 h, read-out: Activity.
Assay [26] is described as follows: Cytotoxicity against human DU145 cells assessed as cell growth at 10^-4 M after 48 hrs by SRB assay. It counts as functional. Conditions: DU-145, 48 h, read-out: Activity.
Assay [27] is described as follows: Cytotoxicity against human HCC2998 cells assessed as cell growth at 10^-7 M after 48 hrs by SRB assay. In kind it is functional. The conditions noted are these: HCC 2998, 48 h, read-out: Activity.
A short description of assay [28]: Cytotoxicity against human Caki1 cells assessed as cell growth at 10^-8 M after 48 hrs by SRB assay. It counts as functional. Conditions: CAKI-1, 48 h, read-out: Activity.
Assay [29] can be described thus: Cytotoxicity against human SKOV3 cells assessed as cell growth at 10^-5 M after 48 hrs by SRB assay. In kind it is functional. Conditions: SK-OV-3, 48 h, read-out: Activity.
In a further assay the test system is SR. Kind of assay: Cytotoxicity against human SR cells assessed as cell growth at 10^-5 M after 48 hrs by SRB assay. It counts as functional. The conditions noted are these: read-out: Activity.
The subject of assay [30] is U-251. Kind of assay: Cytotoxicity against human U251 cells assessed as cell growth at 10^-8 M after 48 hrs by SRB assay. In kind it is functional. The conditions noted are these: U-251, 48 h, read-out: Activity.
A short description of assay [31]: Cytotoxicity against human SNB75 cells assessed as cell growth at 10^-4 M after 48 hrs by SRB assay. In kind it is functional. The conditions noted are these: SNB-75, 48 h, read-out: Activity.
Assay [32] in a line: Cytotoxicity against human BT549 cells assessed as cell growth at 10^-8 M after 48 hrs by SRB assay. In kind it is functional. Conditions: BT-549, 48 h, read-out: Activity.
A short description of assay [33]: Cytotoxicity against human RXF393 cells assessed as cell growth at 10^-7 M after 48 hrs by SRB assay. The conditions noted are these: RXF 393, 48 h, read-out: Activity. It counts as functional.
Another assay deals with Estrogen receptor beta (Homo sapiens, UniProt Q92731).
Chain of Estrogen receptor beta (Q92731 whole entry): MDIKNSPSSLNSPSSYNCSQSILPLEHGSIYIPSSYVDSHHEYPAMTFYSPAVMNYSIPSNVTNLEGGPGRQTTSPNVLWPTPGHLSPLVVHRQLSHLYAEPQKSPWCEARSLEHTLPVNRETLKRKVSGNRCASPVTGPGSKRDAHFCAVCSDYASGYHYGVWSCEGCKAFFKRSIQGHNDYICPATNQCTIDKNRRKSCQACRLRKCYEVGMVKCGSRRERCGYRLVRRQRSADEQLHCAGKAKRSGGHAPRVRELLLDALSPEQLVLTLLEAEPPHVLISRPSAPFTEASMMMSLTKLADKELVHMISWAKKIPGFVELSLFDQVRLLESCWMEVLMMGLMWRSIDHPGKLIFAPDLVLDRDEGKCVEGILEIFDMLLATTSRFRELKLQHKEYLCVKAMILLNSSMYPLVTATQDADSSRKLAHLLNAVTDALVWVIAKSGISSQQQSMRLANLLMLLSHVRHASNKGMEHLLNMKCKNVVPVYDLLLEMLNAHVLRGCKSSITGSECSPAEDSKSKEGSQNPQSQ
The nature of assay [34]: Cytotoxicity against human UO31 cells assessed as cell growth at 10^-4 M after 48 hrs by SRB assay. In kind it is functional. Conditions: UO-31, 48 h, read-out: Activity.
Assay [35] has as its system EKVX. Kind of assay: Cytotoxicity against human EKVX cells assessed as cell growth at 10^-7 M after 48 hrs by SRB assay. In kind it is functional. The conditions noted are these: read-out: Activity.
Assay [36] can be described thus: Cytotoxicity against human HOP62 cells assessed as cell growth at 10^-5 M after 48 hrs by SRB assay. The conditions noted are these: HOP-62, 48 h, read-out: Activity. In kind it is functional.
Assay [37] is described as follows: Cytotoxicity against human BT549 cells assessed as cell growth at 10^-4 M after 48 hrs by SRB assay. The conditions noted are these: BT-549, 48 h, read-out: Activity. It counts as functional.

Structures are written as SMILES.

Description for Estrogen receptor beta: Displacement of [3H]-E2 from human ER-beta incubated for 16 to 20 hrs by liquid scintillation counting analysis

In the case of `CCCCCCCCCC(=O)Oc1ccc(/C(=C(/C)c2ccccc2)c2ccc(OCCN3CCCC3)cc2)cc1`, the growth at 50 µM in the assay on KM12 is -86%; in [5], -90%; in assay [8], -84%; in assay [9] it was -78%; with U-251 [13], -89%; in assay [17] it was -52%. Besides, the values for the growth at 50 µM (with NCI-H226; in assay [19]) were -74% and -58%, respectively. Moreover, the growth at 0.5 µM with NCI-H460 came out at 78%; with MDA-MB-468, 69%; in [12] it was 86%; in assay [18] it was 61%; in assay [20] it was 81%. In addition, the growth at 0.05 µM in assay [1] amounted to 97%; in [2], 100%; with EKVX [3], 90%; in assay [14] it was 98%. The growth at 5 µM in assay [4] is 77%; in assay [7], 94%; in [10] it was 70%; in assay [15] it was 71%. Moreover, the growth at 0.005 µM in assay [6] was 95%; with K562 [11], 100%; in assay [16], 101%; in [21], 100%.
Usually IC50 stands for the concentration that inhibits the measured activity by half. Turning to `C/C(=C(/c1ccc(O)cc1)c1ccc(OCCN2CCCC2)cc1)c1ccccc1`, the growth at 100 µM in assay [22] was -100%; in assay [26], -100%; in [31], -94%; in assay [34] it was -92%; in assay [37] it was -100%. Besides, the growth at 10 µM is 27% in [23], 13% in [29], -25% in the assay on SR and -51% in [36]. Moreover, the growth at 0.01 µM came out at 97% in [24], 87% in [28], 103% in the assay with U-251 [30] and 96% in [32]. The growth at 0.1 µM in the assay with K562 [25] amounted to 96%; in assay [27] it was 92%; in [33] it was 105%; with EKVX [35] it was 93%. Moreover, the midpoint of inhibition on Estrogen receptor beta, the IC50, lay at 40 nM.
